Experimental data from the CheMixHub viscosity set.

Assay: xn = mol fraction of the nth substance listed

OC(C(F)(F)F)C(F)(F)F + O
viscosity [mPa·s], 101 kPa
Conditions | 298.15 K | 303.15 K | 313.15 K | 323.15 K
x1 = 0.002095 | 0.921 | 0.824 | 0.671 | 0.559
x1 = 0.004456 | 0.959 | 0.857 | 0.691 | 0.575
x1 = 0.008636 | 1.027 | 0.911 | 0.73 | 0.602
x1 = 0.01141 | 1.076 | 0.951 | 0.756 | 0.621
x1 = 0.0205 | 1.22 | 1.069 | 0.84 | 0.682
x1 = 0.0264 | 1.31 | 1.147 | 0.897 | 0.727
x1 = 0.04493 | 1.583 | 1.383 | 1.075 | 0.869
x1 = 0.06872 | 1.854 | 1.606 | 1.246 | 0.997
x1 = 0.09912 | 2.077 | 1.797 | 1.377 | 1.094
x1 = 0.1716 | 2.251 | 1.93 | 1.463 | 1.147
x1 = 0.2057 | 2.246 | 1.934 | 1.459 | 1.142
x1 = 0.3052 | 2.102 | 1.83 | 1.4 | 1.086
x1 = 0.4208 | 1.879 | 1.633 | 1.262 | 1.004
x1 = 0.5004 | 1.76 | 1.541 | 1.202 | 0.964
x1 = 0.6306 | 1.636 | 1.433 | 1.119 | 0.907
x1 = 0.6778 | 1.606 | 1.405 | 1.102 | 0.883
x1 = 0.7422 | 1.585 | 1.39 | 1.077 | 0.864
x1 = 0.8064 | 1.575 | 1.374 | 1.049 | 0.849
x1 = 0.8456 | 1.575 | 1.372 | 1.045 | 0.833

Oc1ccccc1 + O=C1CCCCC1
298.15 K, 101.3 kPa
Conditions | viscosity [mPa·s]
x2 = 0.79 | 2.24
x2 = 0.9 | 2.02

Oc1ccccc1 + O=Cc1ccccc1
308.15 K, 101.33 kPa
Conditions | viscosity [mPa·s]
x2 = 0.107 | 4.318
x2 = 0.303 | 2.944
x2 = 0.39 | 2.642
x2 = 0.499 | 2.401
x2 = 0.595 | 1.989
x2 = 0.706 | 1.55
x2 = 0.904 | 1.2

ClC(Cl)C(Cl)Cl + O=S1(=O)CCCC1
viscosity [mPa·s], 100 kPa
Conditions | x2 = 0.0224 | x2 = 0.1377 | x2 = 0.2568 | x2 = 0.3746 | x2 = 0.4803 | x2 = 0.5855 | x2 = 0.7134 | x2 = 0.8418 | x2 = 0.9751
303.15 K | 1.674 | 2.8 | 3.962 | 5.052 | 5.983 | 6.858 | 7.865 | 8.855 | 9.835
308.15 K | 1.537 | 2.519 | 3.525 | 4.469 | 5.292 | 6.043 | 6.927 | 7.779 | 8.631
313.15 K | 1.417 | 2.285 | 3.173 | 4.004 | 4.72 | 5.396 | 6.171 | 6.937 | 7.691

CNc1ccccc1 + O=[N+]([O-])c1ccccc1
Conditions | viscosity [mPa·s]
303.15 K, 101.3 kPa, x1 = 0.5 | 1.52

Oc1ccccc1 + O=[N+]([O-])c1ccccc1
293.15 K, 101 kPa
Conditions | viscosity [mPa·s]
x1 = 0.0537 | 1.975
x1 = 0.113 | 2.041
x1 = 0.2245 | 2.208
x1 = 0.3306 | 2.46
x1 = 0.4448 | 2.845
x1 = 0.5641 | 3.53
x1 = 0.6497 | 4.19
x1 = 0.7623 | 5.4
x1 = 0.8785 | 7.59

C1N2CN3CN1CN(C2)C3 + [2H]O[2H]
viscosity [mPa·s], 101 kPa
Conditions | x1 = 0.004002 | x1 = 0.007971 | x1 = 0.01158 | x1 = 0.01549 | x1 = 0.01969
293.15 K | 1.217 | 1.252 | 1.311 | 1.396 | 1.515
298.15 K | 1.106 | 1.141 | 1.189 | 1.258 | 1.35
300.15 K | 1.007 | 1.036 | 1.077 | 1.135 | 1.219
305.15 K | 0.92 | 0.962 | 1.002 | 1.049 | 1.108

O=S(=O)([O-])[O-].[Li+].[Li+] + [2H]O[2H]
viscosity [mPa·s], 101 kPa
Conditions | x1 = 0.005 | x1 = 0.016 | x1 = 0.032 | x1 = 0.052
298.15 K | 1.243 | 1.74 | 2.887 | 5.343
308.15 K | 0.975 | 1.355 | 2.216 | 3.964
318.15 K | 0.802 | 1.102 | 1.77 | 3.084

COCCOCCOC + c1ccc2c(c1)CCCC2
viscosity [mPa·s], 101.33 kPa
Conditions | x1 = 0.1028 | x1 = 0.1977 | x1 = 0.3019 | x1 = 0.3993 | x1 = 0.5009 | x1 = 0.666 | x1 = 0.7016 | x1 = 0.7949 | x1 = 0.8987
298.15 K | 1.786 | 1.637 | 1.5 | 1.396 | 1.294 | 1.197 | 1.144 | 1.087 | 1.032
303.15 K | 1.619 | 1.487 | 1.367 | 1.275 | 1.185 | 1.071 | 1.05 | 1 | 0.95
308.15 K | 1.472 | 1.355 | 1.249 | 1.17 | 1.087 | 0.984 | 0.967 | 0.922 | 0.879
313.15 K | 1.348 | 1.245 | 1.15 | 1.078 | 1.004 | 0.913 | 0.897 | 0.859 | 0.815
